# Data from patent publication US20230190717A1, “P38 GAMMA INHIBITORS AND METHOD OF USE THEREOF” (City of Hope, priority 2017, published 2023).
# Legend:
# Format in all cases: cell-based, human
# A549 = assay: NCI-60 cytotoxicity, A549; conditions: A549 (Lung), 72 h
# Description: (§1) Briefly, human NCI-60 cancer cell lines were counted with a Vi-CELL Cell Viability Analyzer (Beckman Coulter), resuspended in RPMI-1640 medium containing 10% FBS and 1% penicillin/streptomycin and dispensed in wells of 96-well microplates (3000 cells per well for solid tumor and 5000 per well for blood tumor cells) using an epMotion 5075 liquid handler (Eppendorf) under a sterile condition, followed by incubation overnight at 37° C. in 5% (v/v) CO2. Cells were exposed to compounds in a dose-dependent manner for 72 h. An MTS dye (20 uL per well) was added to each well. Cell viability was determined by tetrazolium conversion to its […] dye. […] Each experiment was performed in duplicate. […] H9 cells are more sensitive to drugs, therefore instead of 72 hours, we choose 48 hour the incubation time for H9 cells.
# (§2) IC50 values were determined using […] software (Biosoft).
# NCI-H23 = assay: NCI-60 cytotoxicity, NCI-H23; conditions: NCI-H23 (Lung), 72 h
# Description: as §1, §2
# NCI/ADR-RES = assay: NCI-60 cytotoxicity, NCI/ADR-RES; conditions: NCI/ADR-RES (Ovarian), 72 h
# Description: as §1, §2
# K-562 = assay: NCI-60 cytotoxicity, K-562; conditions: K-562 (CML), 72 h
# Description: as §1, §2
# SNB-19 = assay: NCI-60 cytotoxicity, SNB-19; conditions: SNB-19 (CNS), 72 h
# Description: as §1, §2
# TK-10 = assay: NCI-60 cytotoxicity, TK-10; conditions: TK-10 (Renal), 72 h
# Description: as §1, §2
# PC-3 = assay: NCI-60 cytotoxicity, PC-3; conditions: PC-3 (Prostate), 72 h
# Description: as §1, §2
# KM12 = assay: NCI-60 cytotoxicity, KM12; conditions: KM12 (Colon), 72 h
# Description: as §1, §2
# Colo 205 = assay: NCI-60 cytotoxicity, Colo 205; conditions: Colo 205 (Colon), 72 h
# Description: as §1, §2
# OVCAR-4 = assay: NCI-60 cytotoxicity, OVCAR-4; conditions: OVCAR-4 (Ovarian), 72 h
# Description: as §1, §2
# UACC-62 = assay: NCI-60 cytotoxicity, UACC-62; conditions: UACC-62 (Melanoma), 72 h
# Description: as §1, §2
# RPMI-8226 = assay: NCI-60 cytotoxicity, RPMI-8226; conditions: RPMI-8226 (MM), 72 h
# Description: as §1, §2
# NCI-H552 = assay: NCI-60 cytotoxicity, NCI-H552; conditions: NCI-H552 (Lung), 72 h
# Description: as §1, §2
# U251 = assay: NCI-60 cytotoxicity, U251; conditions: U251 (CNS), 72 h
# Description: as §1, §2
# HCC-2998 = assay: NCI-60 cytotoxicity, HCC-2998; conditions: HCC-2998 (Colon), 72 h
# Description: as §1, §2
# HOP-62 = assay: NCI-60 cytotoxicity, HOP-62; conditions: HOP-62 (Lung), 72 h
# Description: as §1, §2
# 786-0 = assay: NCI-60 cytotoxicity, 786-0; conditions: 786-0 (Renal), 72 h
# Description: as §1, §2
# MOLT-4 = assay: NCI-60 cytotoxicity, MOLT-4; conditions: MOLT-4 (ALL), 72 h
# Description: as §1, §2
# RXF 393 = assay: NCI-60 cytotoxicity, RXF 393; conditions: RXF 393 (Renal), 72 h
# Description: as §1, §2
# HCT-116 = assay: NCI-60 cytotoxicity, HCT-116; conditions: HCT-116 (Colon), 72 h
# Description: as §1, §2
# SF-268 = assay: NCI-60 cytotoxicity, SF-268; conditions: SF-268 (CNS), 72 h
# Description: as §1, §2
# MDA-MB-231 = assay: NCI-60 cytotoxicity, MDA-MB-231; conditions: MDA-MB-231 (Breast), 72 h
# Description: as §1, §2
# CCRF-CEM = assay: NCI-60 cytotoxicity, CCRF-CEM; conditions: CCRF-CEM (Leukemia), 72 h
# Description: as §1, §2
# MDA-MB-468 = assay: NCI-60 cytotoxicity, MDA-MB-468; conditions: MDA-MB-468 (Breast), 72 h
# Description: as §1, §2
# SR = assay: NCI-60 cytotoxicity, SR; conditions: SR (Leukemia), 72 h
# Description: as §1, §2
# HCT-15 = assay: NCI-60 cytotoxicity, HCT-15; conditions: HCT-15 (Colon), 72 h
# Description: as §1, §2
# CAKI-1 = assay: NCI-60 cytotoxicity, CAKI-1; conditions: CAKI-1 (Renal), 72 h
# Description: as §1, §2
# SF-539 = assay: NCI-60 cytotoxicity, SF-539; conditions: SF-539 (CNS), 72 h
# Description: as §1, §2
# MALME-3M = assay: NCI-60 cytotoxicity, MALME-3M; conditions: MALME-3M (Melanoma), 72 h
# Description: as §1, §2
# A498 = assay: NCI-60 cytotoxicity, A498; conditions: A498 (Renal), 72 h
# Description: as §1, §2
# UO31 = assay: NCI-60 cytotoxicity, UO31; conditions: UO31 (Renal), 72 h
# Description: as §1, §2
# UACC257 = assay: NCI-60 cytotoxicity, UACC257; conditions: UACC257 (Melanoma), 72 h
# Description: as §1, §2
# BT-S49 = assay: NCI-60 cytotoxicity, BT-S49; conditions: BT-S49 (Breast), 72 h
# Description: as §1, §2
smiles,measurement,setting,value
Cc1ccc([N+](=O)[O-])cc1S(=O)(=O)N(C)/N=C/c1cnc2ccc(Br)cn12 [Compound 1],IC50,A549; Homo sapiens,2660 nM
same,IC50,NCI-H23; Homo sapiens,> 10000 nM
same,IC50,NCI/ADR-RES; Homo sapiens,24 nM
same,IC50,"K-562; Homo sapiens, K562",416 nM
same,IC50,SNB-19; Homo sapiens,385 nM
same,IC50,TK-10; Homo sapiens,805 nM
same,IC50,PC-3; Homo sapiens,20 nM
same,IC50,KM12; Homo sapiens,6 nM
same,IC50,Colo 205; Homo sapiens,2180 nM
same,IC50,OVCAR-4; Homo sapiens,403 nM
same,IC50,UACC-62; Homo sapiens,362 nM
same,IC50,RPMI-8226; Homo sapiens,77 nM
same,IC50,NCI-H552; Homo sapiens,> 10000 nM
same,IC50,"U251; Homo sapiens, U-251",253 nM
same,IC50,HCC-2998; Homo sapiens,> 10000 nM
same,IC50,HOP-62; Homo sapiens,8 nM
same,IC50,786-0; Homo sapiens,8 nM
same,IC50,MOLT-4; Homo sapiens,527 nM
same,IC50,RXF 393; Homo sapiens,80 nM
same,IC50,HCT-116; Homo sapiens,1 nM
same,IC50,SF-268; Homo sapiens,2230 nM
same,IC50,MDA-MB-231; Homo sapiens,466 nM
same,IC50,CCRF-CEM; Homo sapiens,3720 nM
same,IC50,MDA-MB-468; Homo sapiens,103 nM
same,IC50,SR; Homo sapiens,< 1 nM
same,IC50,HCT-15; Homo sapiens,8 nM
same,IC50,CAKI-1; Homo sapiens,350 nM
same,IC50,SF-539; Homo sapiens,177 nM
same,IC50,MALME-3M; Homo sapiens,116 nM
same,IC50,A498; Homo sapiens,27 nM
same,IC50,"UO31; Homo sapiens, UO-31",115 nM
same,IC50,"UACC257; Homo sapiens, UACC-257",2320 nM
same,IC50,BT-S49; Homo sapiens,< 1 nM
O=C1NC(=NCc2cccs2)S/C1=C\c1ccc2ncccc2c1 [Compound A10],IC50,A549,> 10000 nM
same,IC50,NCI-H23,> 10000 nM
same,IC50,NCI/ADR-RES,3670 nM
same,IC50,K-562,> 10000 nM
same,IC50,SNB-19,> 10000 nM
same,IC50,TK-10,> 10000 nM
same,IC50,PC-3,> 10000 nM
same,IC50,KM12,> 10000 nM
same,IC50,Colo 205,> 10000 nM
same,IC50,OVCAR-4,> 10000 nM
same,IC50,UACC-62,> 10000 nM
same,IC50,RPMI-8226,9000 nM
same,IC50,NCI-H552,> 10000 nM
same,IC50,U251,1920 nM
same,IC50,HCC-2998,> 10000 nM
same,IC50,HOP-62,> 10000 nM
same,IC50,786-0,7770 nM
same,IC50,MOLT-4,5200 nM
same,IC50,RXF 393,> 10000 nM
same,IC50,HCT-116,3200 nM
same,IC50,SF-268,> 10000 nM
same,IC50,MDA-MB-231,> 10000 nM
same,IC50,CCRF-CEM,2500 nM
same,IC50,MDA-MB-468,6970 nM
same,IC50,SR,372 nM
same,IC50,HCT-15,3840 nM
same,IC50,CAKI-1,> 10000 nM
same,IC50,SF-539,2550 nM
same,IC50,MALME-3M,> 10000 nM
same,IC50,A498,> 10000 nM
same,IC50,UO31,> 10000 nM
same,IC50,UACC257,> 10000 nM
same,IC50,BT-S49,4780 nM
O=C1NCCc2[nH]c(-c3ccncc3)cc21 [Compound A11],IC50,A549,> 10000 nM
same,IC50,NCI-H23,> 10000 nM
same,IC50,NCI/ADR-RES,1440 nM
same,IC50,K-562,> 10000 nM
same,IC50,SNB-19,> 10000 nM
same,IC50,TK-10,> 10000 nM
same,IC50,PC-3,9180 nM
same,IC50,KM12,2280 nM
same,IC50,Colo 205,> 10000 nM
same,IC50,OVCAR-4,> 10000 nM
same,IC50,UACC-62,6120 nM
same,IC50,RPMI-8226,> 10000 nM
same,IC50,NCI-H552,> 10000 nM
same,IC50,U251,4570 nM
same,IC50,HCC-2998,> 10000 nM
same,IC50,HOP-62,9940 nM
same,IC50,786-0,9300 nM
same,IC50,MOLT-4,6980 nM
same,IC50,RXF 393,3470 nM
same,IC50,HCT-116,1260 nM
same,IC50,SF-268,> 10000 nM
same,IC50,MDA-MB-231,> 10000 nM
same,IC50,CCRF-CEM,2500 nM
same,IC50,MDA-MB-468,1770 nM
same,IC50,SR,286 nM
same,IC50,HCT-15,2540 nM
same,IC50,CAKI-1,> 10000 nM
same,IC50,SF-539,3680 nM
same,IC50,MALME-3M,3050 nM
same,IC50,A498,> 10000 nM
same,IC50,UO31,4030 nM
same,IC50,UACC257,> 10000 nM
same,IC50,BT-S49,705 nM
